Target: human phosphodiesterase-3A (Homo sapiens (Human), UniProt Q14432)
Assay: PDE3 Assay
Format: biochemical
Details: human recombinant enzyme expressed in Sf9 cells; formation of 5'AMP from cAMP
Protocol: Evaluation of the effects of compounds on the activity of the human phosphodiesterase-3A is quantified by measuring the formation of 5′AMP from cAMP using a human recombinant enzyme expressed in a clonal isolate of Spodoptera frugiperda cells (Sf9) cells.
The test compound, reference compound or water (control) are added to a buffer containing 40 mM tris(hydroxymethyl)aminomethane (Tris)/HCl (pH 7.4) and 8 mM MgCl2, 450 nMcAMP and 0.25 μCi [^3H]cAMP.
Thereafter, the reaction is initiated by addition of the enzyme (about 1 U) and the mixture is incubated for 20 min at 22° C.
For basal control measurements, the enzyme is omitted from the reaction mixture. Following incubation SPA beads are added. After 30 min at 22° C. under shaking, the amount of [^3H]^+ 5′AMP is quantified with a scintillation counter (Topcount, Packard).
The results are expressed as a percent inhibition of the control enzyme activity. The standard inhibitory reference compound is milrinone (CAS number 78415-72-2), which is tested in each experiment at several concentrations to obtain an inhibition curve from which its IC50 value is calculated.

Chain of human phosphodiesterase-3A (Q14432 whole entry): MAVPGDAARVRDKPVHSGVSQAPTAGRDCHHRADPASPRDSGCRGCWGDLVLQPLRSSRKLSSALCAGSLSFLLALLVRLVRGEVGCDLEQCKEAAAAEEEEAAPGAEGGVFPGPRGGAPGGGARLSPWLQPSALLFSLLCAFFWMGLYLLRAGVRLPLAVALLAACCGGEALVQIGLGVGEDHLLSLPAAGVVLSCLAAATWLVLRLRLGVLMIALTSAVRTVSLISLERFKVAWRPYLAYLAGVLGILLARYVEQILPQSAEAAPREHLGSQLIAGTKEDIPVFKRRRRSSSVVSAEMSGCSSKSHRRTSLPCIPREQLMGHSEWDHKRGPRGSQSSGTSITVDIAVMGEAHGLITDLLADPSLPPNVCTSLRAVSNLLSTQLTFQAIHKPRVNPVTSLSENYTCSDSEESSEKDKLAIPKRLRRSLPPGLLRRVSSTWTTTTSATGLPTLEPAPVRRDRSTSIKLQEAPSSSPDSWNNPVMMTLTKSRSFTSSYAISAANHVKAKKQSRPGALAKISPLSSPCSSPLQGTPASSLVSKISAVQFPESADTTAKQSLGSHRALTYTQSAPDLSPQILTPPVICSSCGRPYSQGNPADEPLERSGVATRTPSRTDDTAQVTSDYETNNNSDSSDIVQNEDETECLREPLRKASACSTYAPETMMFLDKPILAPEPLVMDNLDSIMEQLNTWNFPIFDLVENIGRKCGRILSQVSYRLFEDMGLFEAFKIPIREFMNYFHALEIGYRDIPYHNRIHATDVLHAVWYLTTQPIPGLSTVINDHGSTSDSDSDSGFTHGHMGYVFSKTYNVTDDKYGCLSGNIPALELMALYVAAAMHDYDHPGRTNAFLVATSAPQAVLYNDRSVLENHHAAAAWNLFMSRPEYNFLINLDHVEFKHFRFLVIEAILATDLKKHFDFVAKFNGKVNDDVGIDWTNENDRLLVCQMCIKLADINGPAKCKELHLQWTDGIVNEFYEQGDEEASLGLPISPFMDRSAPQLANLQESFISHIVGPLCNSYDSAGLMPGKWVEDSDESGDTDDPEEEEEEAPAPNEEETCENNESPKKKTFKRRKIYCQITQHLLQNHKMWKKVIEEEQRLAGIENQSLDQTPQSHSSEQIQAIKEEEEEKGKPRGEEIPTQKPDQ

Row | Compound | IC50
1 | N#Cc1ccc(COc2cccc(C3=CCN(Cc4nc5ccc(C(=O)O)cc5n4C[C@@H]4CCO4)CC3)n2)c(F)c1 [Ref Comp A, reference compound] | 4 µM
2 | N#Cc1ccc(COc2cccc(C3CCN(Cc4nc5ccc(C(=O)O)cc5n4C[C@H]4CCO4)CC3)n2)c(F)c1 [Ref Comp B, reference compound] | 11 µM
3 | Cc1cc(Cc2nc3ccc(C(=O)O)cc3n2C[C@@H]2CCO2)c(F)cc1-c1cccc(OCc2ccc(C#N)cc2F)n1 [Ref Comp D, reference compound] | 5 µM

From patent US20250066338A1, “CERTAIN 3-AZABICYCLO[3.1.0]HEXANES AS GLP-1 RECEPTOR MODULATORS” (AstraZeneca AB, priority 2021, published 2025)
